These results are taken from ChEMBL document CHEMBL1142331, “Activation and inhibition of DNA methyltransferases by S-adenosyl-L-homocysteine analogues” (Bioorg Med Chem, 2008).

Active and inactive are the calls of the source. The calls are words filed in the database; no cut-off is given here.

For orientation: Ki means a measure of affinity in units of concentration, obtained from inhibition or displacement. A higher Ki goes with weaker binding. As usually defined, the IC50 is the concentration at which inhibition is half-maximal. Higher therefore signals a need for much substance.

In experiment [1] the test system is Escherichia coli. The experiment is described as follows: Activation of Escherichia coli DNA methyltransferase upto 20 uM.
Experiment [2] has as its system Escherichia coli. The experiment is described as follows: Inhibition of Escherichia coli DNA methyltransferase assessed as fluorescence quenching measured.
For a further experiment, the system named is Haemophilus haemolyticus. The experiment is described as follows: Activation of M.HhaI DNA methyltransferase upto 16 uM.
Experiment [3] deals with T1, DNA adenine methylase (Escherichia coli K-12) (UniProt P0AEE8).
T1 sequence (whole entry): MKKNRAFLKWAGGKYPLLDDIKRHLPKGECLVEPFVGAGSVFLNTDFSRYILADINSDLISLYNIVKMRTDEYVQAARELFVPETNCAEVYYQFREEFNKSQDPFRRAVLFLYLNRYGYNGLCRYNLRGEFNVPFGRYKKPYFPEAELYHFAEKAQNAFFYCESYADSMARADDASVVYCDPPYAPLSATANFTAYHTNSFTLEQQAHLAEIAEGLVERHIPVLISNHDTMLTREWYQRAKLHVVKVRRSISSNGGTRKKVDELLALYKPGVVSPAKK
The experiment is described as follows: Inhibition of Escherichia coli DNA adenine methyltransferase at 15 uM after 30 mins.

Experiment [4] concerns ER1727. The experiment is described as follows: Inhibition of M.HhaI DNA methyltransferase expressed in ER1727 cells at 15 uM after 30 mins. The class given is cell-based. The note with it: Haemophilus haemolyticus.
Experiment [5] deals with Escherichia coli. The experiment is described as follows: Inhibition of Escherichia coli DNA methyltransferase at 15 uM after 30 mins.
Experiment [6] in a line: Inhibition of Escherichia coli DNA methyltransferase measured by secondary plot.
Experiment [7] can be described thus: Inhibition of Escherichia coli DNA methyltransferase measured by dixon plot.
Experiment [8] deals with ER1727. The experiment is described as follows: Inhibition of M.HhaI DNA methyltransferase expressed in ER1727 cells after 30 mins. The class given is cell-based. To be noted: Haemophilus haemolyticus.
Experiment [9] has as its system Escherichia coli. The experiment is described as follows: Inhibition of Escherichia coli DNA methyltransferase after 30 mins.

In the case of `Nc1cccc2c1ncn2[C@@H]1O[C@H](CSCCC(=O)O)[C@@H](O)[C@H]1O`, the result (in the experiment on Escherichia coli [1]; in the experiment on Haemophilus haemolyticus; in experiment [3]) was Active. In addition, in the experiment with Escherichia coli [2], the Activity was 5.66 µM.
With `C#CCSC[C@H]1O[C@@H](n2cnc3c(N)ncnc32)[C@H](O)[C@@H]1O`, the result with ER1727 [4] and with Escherichia coli [5] was inactive.
As to `CC#CSC[C@H]1O[C@@H](n2cnc3c(N)ncnc32)[C@H](O)[C@@H]1O`, the outcome in the experiment with ER1727 [4] and in the experiment on Escherichia coli [5] was inactive.
As for `Nc1ncnc2c1ncn2[C@@H]1O[C@H](CCl)[C@@H](O)[C@H]1O`, the result with ER1727 [4] and in the experiment with Escherichia coli [5] was inactive.
With `C=C=CSC[C@H]1O[C@@H](n2cnc3c(N)ncnc32)[C@H](O)[C@@H]1O`, the outcome in the experiment on ER1727 [4] and with Escherichia coli [5] was inactive.
Take `C=CCSC[C@H]1O[C@@H](n2cnc3c([N+](=O)[O-])cccc32)[C@H](O)[C@@H]1O`: the outcome in the experiment on ER1727 [4] and in the experiment on Escherichia coli [5] was inactive.
Turning to `O=[N+]([O-])c1cccc2c1ncn2[C@@H]1O[C@H](CO)[C@@H](O)[C@H]1O`, the result in the experiment with ER1727 [4] and in the experiment on Escherichia coli [5] was inactive.
For `Nc1ncnc2c1ncn2[C@@H]1O[C@H](CSCCC(=O)O)[C@@H](O)[C@H]1O`, the affinity in experiment [6] corresponds to a Ki of 5 µM. Besides, the Activity in the experiment on Escherichia coli [2] is 22 µM; with ER1727 [8] it was “Dose-dependent effect”; in the experiment with Escherichia coli [9], “Dose-dependent effect”. The compound also registered a 50% inhibitory concentration (IC50) in [7] of 5 µM. For the same compound, the outcome in experiment [3] was Active.
For `NC(=O)CCSC[C@H]1O[C@@H](n2cnc3c(N)ncnc32)[C@H](O)[C@@H]1O`, the result in the experiment on ER1727 [4] and in the experiment with Escherichia coli [5] was inactive.
Take `Nc1ncnc2c1ncn2[C@@H]1O[C@H](CSCC[C@H](N)C(=O)O)[C@@H](O)[C@H]1O`: the outcome in the experiment with ER1727 [4] and with Escherichia coli [5] was Active.
On to `CSC[C@H]1O[C@@H](n2cnc3c(N)ncnc32)[C@H](O)[C@@H]1O`, for which the outcome in the experiment with ER1727 [4] and with Escherichia coli [5] was inactive.
On to `CCOC(=O)CCSC[C@H]1O[C@@H](n2cnc3c(N)ncnc32)[C@H](O)[C@@H]1O`, for which the result in the experiment with Escherichia coli [2], in the experiment on ER1727 [4] and with Escherichia coli [5] was inactive.
